Source: patent US10782295B2, “Cysteine-reactive ligand discovery in proteomes” (THE SCRIPPS RESEARCH INSTITUTE, priority 2013, dated 2020)

System: cysteines in ZAK, EEF2, RTN4 and FN3KRP
Test: in situ competitive isoTOP-ABPP in MDA-MB-231 cells
Format: cell-based, human
Conditions: MDA-MB-231 cells treated with 50 or 100 μM HNE
Procedure: By combining the R values at all 5 HNE concentrations, we could extrapolate IC50 values for […] of IA probe-labeling for ˜700 of the 1100 cysteines (FIG. 3a).
After MDA-MB-231 cells were grown to 100% confluency, the media was removed and replaced with fresh serum-free media containing 100 μM HNE (20 μL of […] stock in 10 mL media). A control flask of cells was treated with 10 mL of serum-free media containing 20 uL of ethanol in parallel. The cells were incubated at 37° C. for 1 hour and harvested as detailed above to prepare HNE-treated and control proteomes, respectively. […]
IA-probe labeled peptides were identified by SEQUEST2 and DTASelect3, and the quantification of heavy/light ratios (isoTOP-ABPP ratios, R) was performed by an in-house software (CIMAGE) as previously described. The software was advanced to be able to detect and quantify cases where near complete […] blockade of IA-probe labeling was achieved (e.g., very small or no light peak) and assign an empirical ratio cut-off of 15 to each of such cases. […] In the case of probe-modified peptides that were sequenced in one, but not the other runs, a featured algorithm of CIMAGE was utilized to identify the corresponding peak pairs in the runs without the SEQUEST identification and obtain quantification as previously described. […]

## CCCCCC(O)/C=C/C=O (stereo not shown) [4-HNE, 4-Hydroxynonenal]
  inhibition of the most HNE-sensitive cysteines in situ: strongly inhibited
